Tests used:
[1] = system: non-small cell lung cancer cell line H460; assay: H460 proliferation assay in the presence of 3 uM ASP9521 (AKR1C3 specific inhibitor); format: cell-based, human; conditions: H460 cells, CellTiter-Glo, 72 hours, in the presence of 3 uM ASP9521 added 4 hours prior to compounds; read-out: CTG H460: Avg IC50 (nM) [Assay Condition: ASP9521]
In short: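 AKR1C3 blocked with 3 uM ASP9521 given 4 h ahead of test compounds. H460 cells, plated 24 h earlier, were then treated for 72 h at 37 °C in 5% CO2. CellTiter-Glo luminescence gave viability.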

[2] = system: non-small cell lung cancer cell line H460; assay: In vitro human cancer cell line cytotoxicity (proliferation) assay in H460, CellTiter-Glo, 72 hours; format: cell-based; conditions: H460 cells, DMSO condition (no AKR1C3 inhibitor), read-out: CTG H460: Avg IC50 (nM) [Assay Condition: DMSO]
In short: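 IC50s in nM come from CellTiter-Glo viability read after 72 h of compound exposure. Compounds went in from 10 mM DMSO stocks onto H460 cells, which had been plated at 3×10^3 per well and grown 24 h beforehand at 37 °C, 5% CO2.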

O=[N+]([O-])c1ccc2c(c1Oc1cccc(OCC(F)(F)F)c1)CC[C@@H]2OP(=O)(N1CC1)N1CC1 [Example 474]
IC50 [1]: 918 nM
IC50 [2]: < 10 nM

O=[N+]([O-])c1ccc2c(c1Oc1ccc(F)c(OC3CCCC3)c1)CCC2OP(=O)(N1CC1)N1CC1 (stereo not drawn) [Example 476]
IC50 [1]: 1090 nM
IC50 [2]: < 10 nM

O=[N+]([O-])c1ccc2c(c1Oc1ccc(F)c(OC(F)F)c1)CCC2OP(=O)(N1CC1)N1CC1 (stereo not drawn) [Example 477]
IC50 [1]: 627 nM
IC50 [2]: < 10 nM

O=[N+]([O-])c1ccc2c(c1Oc1ccc(F)c(OC3CCCC3)c1)CCC2OP(=O)(N1CC1)N1CC1 (stereo not drawn) [Example 478]
IC50 [1]: 1690 nM
IC50 [2]: < 10 nM

O=[N+]([O-])c1ccc2c(c1Oc1ccc(F)c(OC3CCCC3)c1)CCC2OP(=O)(N1CC1)N1CC1 (stereo not drawn) [Example 479]
IC50 [1]: 1630 nM
IC50 [2]: < 10 nM

O=[N+]([O-])c1ccc2c(c1Oc1cccc(OCC3CC3)c1)CCC2OP(=O)(N1CC1)N1CC1 (stereo not drawn) [Example 480]
IC50 [1]: 1760 nM
IC50 [2]: < 10 nM

O=[N+]([O-])c1ccc2c(c1Oc1cccc(OCC3CC3)c1)CC[C@@H]2OP(=O)(N1CC1)N1CC1 [Example 481]
IC50 [1]: 1120 nM
IC50 ([2]; Homo sapiens, NCI-H460, 72 h): < 10 nM

O=[N+]([O-])c1ccc2c(c1Oc1cccc(OCC3CC3)c1)CCC2OP(=O)(N1CC1)N1CC1 (stereo not drawn) [Example 482]
IC50 [1]: 1340 nM
IC50 [2]: < 10 nM

COc1ccc(Oc2c([N+](=O)[O-])ccc3c2CCC3OP(=O)(N2CC2)N2CC2)cc1OC1CC1 (stereo not drawn) [Example 483]
IC50 [1]: 735 nM
IC50 [2]: < 10 nM

CC(C)COc1cccc(Oc2c([N+](=O)[O-])ccc3c2CCC3OP(=O)(N2CC2)N2CC2)c1 (stereo not drawn) [Example 484]
IC50 [1]: 1990 nM
IC50 [2]: < 10 nM

CC(C)COc1cccc(Oc2c([N+](=O)[O-])ccc3c2CCC3OP(=O)(N2CC2)N2CC2)c1 (stereo not drawn) [Example 485]
IC50 [1]: 1150 nM
IC50 [2]: < 10 nM

CC(C)Oc1cc(Oc2c([N+](=O)[O-])ccc3c2CCC3OP(=O)(N2CC2)N2CC2)ccc1F (stereo not drawn) [Example 486]
IC50 [1]: 967 nM
IC50 [2]: < 10 nM

CC(C)Oc1cc(Oc2c([N+](=O)[O-])ccc3c2CCC3OP(=O)(N2CC2)N2CC2)ccc1F (stereo not drawn) [Example 487]
IC50 [1]: 1010 nM
IC50 [2]: < 10 nM

O=[N+]([O-])c1ccc2c(c1Oc1ccc(F)c(OCC3CC3)c1)CC[C@H]2OP(=O)(N1CC1)N1CC1 [Example 488]
IC50 [1]: 857 nM
IC50 ([2]; Homo sapiens, NCI-H460, 72 h): < 10 nM

O=[N+]([O-])c1ccc2c(c1Oc1ccc(F)c(OCC3CC3)c1)CC[C@@H]2OP(=O)(N1CC1)N1CC1 [Example 489]
IC50 [1]: 1660 nM
IC50 ([2]; Homo sapiens, NCI-H460, 72 h): < 10 nM

O=[N+]([O-])c1ccc2c(c1Oc1ccc(OC3CCCC3)cc1)CCC2OP(=O)(N1CC1)N1CC1 (stereo not drawn) [Example 490]
IC50 [1]: 788 nM
IC50 [2]: < 10 nM

O=[N+]([O-])c1ccc2c(c1Oc1ccc(OC3CCCC3)cc1)CCC2OP(=O)(N1CC1)N1CC1 (stereo not drawn) [Example 491]
IC50 [1]: 1940 nM
IC50 [2]: < 10 nM

O=[N+]([O-])c1ccc2c(c1Oc1ccc(OC3COC3)cc1)CC[C@H]2OP(=O)(N1CC1)N1CC1 [Example 492]
IC50 [1]: 778 nM
IC50 ([2]; Homo sapiens, NCI-H460, 72 h): < 10 nM

CCOc1cc(Oc2c([N+](=O)[O-])ccc3c2CC[C@@H]3OP(=O)(N2CC2)N2CC2)ccc1F [Example 493]
IC50 [1]: 341 nM
IC50 ([2]; Homo sapiens, NCI-H460, 72 h): < 10 nM

O=[N+]([O-])c1ccc2c(c1Oc1ccc(F)c(OCC(F)(F)F)c1)CC[C@@H]2OP(=O)(N1CC1)N1CC1 [Example 494]
IC50 [1]: 160 nM
IC50 ([2]; Homo sapiens, NCI-H460, 72 h): < 10 nM

O=[N+]([O-])c1ccc2c(c1Oc1ccc(F)c(OC3CCOCC3)c1)CC[C@@H]2OP(=O)(N1CC1)N1CC1 [Example 495]
IC50 [1]: 635 nM
IC50 ([2]; Homo sapiens, NCI-H460, 72 h): < 10 nM

O=[N+]([O-])c1ccc2c(c1Oc1ccc(F)c(OC3CCOCC3)c1)CC[C@H]2OP(=O)(N1CC1)N1CC1 [Example 496]
IC50 [1]: 783 nM
IC50 ([2]; Homo sapiens, NCI-H460, 72 h): < 10 nM

Cn1cc(Oc2cc(Oc3c([N+](=O)[O-])ccc4c3CC[C@@H]4OP(=O)(N3CC3)N3CC3)ccc2F)cn1 [Example 497]
IC50 [1]: 1010 nM
IC50 ([2]; Homo sapiens, NCI-H460, 72 h): < 10 nM

CC(C)COc1cc(Oc2c([N+](=O)[O-])ccc3c2CC[C@@H]3OP(=O)(N2CC2)N2CC2)ccc1F [Example 498]
IC50 [1]: 899 nM
IC50 ([2]; Homo sapiens, NCI-H460, 72 h): < 10 nM

CC(C)COc1cc(Oc2c([N+](=O)[O-])ccc3c2CC[C@H]3OP(=O)(N2CC2)N2CC2)ccc1F [Example 499]
IC50 [1]: 918 nM
IC50 ([2]; Homo sapiens, NCI-H460, 72 h): < 10 nM

Cc1ncn(-c2cccc(Oc3c([N+](=O)[O-])ccc4c3CC[C@@H]4OP(=O)(N3CC3)N3CC3)c2)n1 [Example 500]
IC50 [1]: 1300 nM
IC50 ([2]; Homo sapiens, NCI-H460, 72 h): < 10 nM

COc1cc(OCC2CC2)cc(Oc2c([N+](=O)[O-])ccc3c2CC[C@@H]3OP(=O)(N2CC2)N2CC2)c1 [Example 501]
IC50 [1]: 1080 nM
IC50 ([2]; Homo sapiens, NCI-H460, 72 h): < 10 nM

COc1ccc(Oc2c([N+](=O)[O-])ccc3c2CC[C@@H]3OP(=O)(N2CC2)N2CC2)cc1OCC1CC1 [Example 502]
IC50 [1]: 546 nM
IC50 ([2]; Homo sapiens, NCI-H460, 72 h): < 10 nM

O=[N+]([O-])c1ccc2c(c1Oc1cc(F)cc(OCC3CC3)c1)CC[C@@H]2OP(=O)(N1CC1)N1CC1 [Example 503]
IC50 [1]: 1660 nM
IC50 ([2]; Homo sapiens, NCI-H460, 72 h): < 10 nM

CS(=O)(=O)c1ccc(Oc2c([N+](=O)[O-])ccc3c2CCC3OP(=O)(N2CC2)N2CC2)cc1 (stereo not drawn) [Example 504]
IC50 [1]: 288 nM
IC50 [2]: < 10 nM

CSc1ccc(Oc2c([N+](=O)[O-])ccc3c2CCC3OP(=O)(N2CC2)N2CC2)cc1 (stereo not drawn) [Example 505]
IC50 [1]: 327 nM
IC50 [2]: < 10 nM

CS(=O)(=O)c1ccc(Oc2c([N+](=O)[O-])ccc3c2CCC3OP(=O)(N2CC2)N2CC2)cc1 (stereo not drawn) [Example 506]
IC50 [1]: 625 nM
IC50 [2]: < 10 nM

CSc1cc(Oc2c([N+](=O)[O-])ccc3c2CCC3OP(=O)(N2CC2)N2CC2)ccc1F (stereo not drawn) [Example 507]
IC50 [1]: 952 nM
IC50 [2]: < 10 nM

CS(=O)(=O)c1cc(Oc2c([N+](=O)[O-])ccc3c2CCC3OP(=O)(N2CC2)N2CC2)ccc1F (stereo not drawn) [Example 508]
IC50 [1]: 519 nM
IC50 [2]: < 10 nM

Cn1cc(Oc2c([N+](=O)[O-])ccc3c2CCC3OP(=O)(N2CC2)N2CC2)ccc1=O (stereo not drawn) [Example 509]
IC50 [1]: 844 nM
IC50 [2]: < 10 nM

O=[N+]([O-])c1ccc2c(c1Oc1ccc(F)c(Br)c1)CCC2OP(=O)(N1CC1)N1CC1 (stereo not drawn) [Example 510]
IC50 [1]: 535 nM
IC50 [2]: < 10 nM

O=c1ccc(Oc2c([N+](=O)[O-])ccc3c2CCC3OP(=O)(N2CC2)N2CC2)cn1C1CC1 (stereo not drawn) [Example 511]
IC50 [1]: 429 nM
IC50 [2]: < 10 nM

O=[N+]([O-])c1ccc2c(c1Oc1ccc(S(=O)(=O)C3CC3)cc1)CC[C@@H]2OP(=O)(N1CC1)N1CC1 [Example 512]
IC50 [1]: 83.3 nM
IC50 ([2]; Homo sapiens, NCI-H460, 72 h): < 10 nM

O=[N+]([O-])c1ccc2c(c1Oc1ccc(F)c(S(=O)(=O)C3CC3)c1)CC[C@@H]2OP(=O)(N1CC1)N1CC1 [Example 513]
IC50 [1]: 682 nM
IC50 ([2]; Homo sapiens, NCI-H460, 72 h): < 10 nM

O=[N+]([O-])c1cc2c(cc1Oc1ccc(-c3ccc(F)cc3)c(F)c1)C(OP(=O)(N1CC1)N1CC1)CC2 (stereo not drawn) [Example 514]
IC50 [1]: 993 nM
IC50 [2]: < 10 nM

O=[N+]([O-])c1cc2c(cc1Oc1ccc(-c3cccnc3)cc1)C(OP(=O)(N1CC1)N1CC1)CC2 (stereo not drawn) [Example 515]
IC50 [1]: 7150 nM
IC50 [2]: 10 to 50 nM

O=C(NC1CCC1)c1ccc(Oc2cc3c(cc2[N+](=O)[O-])CCC3OP(=O)(N2CC2)N2CC2)cc1 (stereo not drawn) [Example 516]
IC50 [1]: 778 nM
IC50 [2]: < 10 nM

O=[N+]([O-])c1cc2c(cc1Oc1ccc(-c3ccccn3)cc1)C(OP(=O)(N1CC1)N1CC1)CC2 (stereo not drawn) [Example 517]
IC50 [1]: 2050 nM
IC50 [2]: < 10 nM

O=[N+]([O-])c1cc2c(cc1Oc1ccc(-c3ccccc3)nc1)C(OP(=O)(N1CC1)N1CC1)CC2 (stereo not drawn) [Example 518]
IC50 [1]: 746 nM
IC50 [2]: < 10 nM

O=[N+]([O-])c1cc2c(cc1Oc1ccc(-c3ccccn3)cc1)C(OP(=O)(N1CC1)N1CC1)CC2 (stereo not drawn) [Example 523]
IC50 [1]: 2070 nM
IC50 [2]: < 10 nM

O=[N+]([O-])c1cc2c(cc1Oc1ccc(-c3ccccn3)cc1)C(OP(=O)(N1CC1)N1CC1)CC2 (stereo not drawn) [Example 524]
IC50 [1]: 1190 nM
IC50 [2]: < 10 nM

O=C(NC1CCC1)c1ccc(Oc2cc3c(cc2[N+](=O)[O-])CC[C@H]3OP(=O)(N2CC2)N2CC2)cc1 [Example 526]
IC50 [1]: 661 nM
IC50 [2]: < 10 nM

O=[N+]([O-])c1cc2c(cc1Oc1ccc(-c3ccccc3)nc1)[C@@H](OP(=O)(N1CC1)N1CC1)CC2 [Example 527]
IC50 [1]: 1090 nM
IC50 [2]: < 10 nM

O=[N+]([O-])c1cc2c(cc1Oc1ccc(-c3ccccc3)nc1)[C@H](OP(=O)(N1CC1)N1CC1)CC2 [Example 528]
IC50 [1]: 880 nM
IC50 [2]: < 10 nM

O=C(c1cccc(Oc2cc3cc(COP(=O)(N4CC4)N4CC4)oc3cc2[N+](=O)[O-])c1)N1CCCC1 [Example 530, (6-nitro-5-(3-(pyrrolidine-1-carbonyl)phenoxy)benzofuran-2-yl)methyl di(aziridin-1-yl)phosphinate]
IC50 [1]: 697 nM
IC50 ([2]; Homo sapiens, NCI-H460, 72 h): < 10 nM

O=[N+]([O-])c1cc2oc(COP(=O)(N3CC3)N3CC3)cc2cc1Oc1cccc(-c2ccccc2)c1 [Example 534]
IC50 [1]: 1200 nM
IC50 ([2]; Homo sapiens, NCI-H460, 72 h): < 10 nM

O=C(c1cccc(Oc2cc3cc(COP(=O)(N4CC4)N4CC4)oc3cc2[N+](=O)[O-])c1)N1CCC1 [Example 535]
IC50 [1]: 378 nM
IC50 ([2]; Homo sapiens, NCI-H460, 72 h): < 10 nM

O=[N+]([O-])c1cc2oc(COP(=O)(N3CC3)N3CC3)cc2cc1Oc1cccc(-c2ccccn2)c1 [Example 536]
IC50 [1]: 651 nM
IC50 ([2]; Homo sapiens, NCI-H460, 72 h): < 10 nM

O=[N+]([O-])c1cc2oc(COP(=O)(N3CC3)N3CC3)cc2cc1Oc1cccc(-c2cccnc2)c1 [Example 537]
IC50 [1]: 3710 nM
IC50 ([2]; Homo sapiens, NCI-H460, 72 h): < 10 nM

Source: patent US20260167656A1, “PHOSPHORAMIDATE COMPOUNDS AND USES THEREOF” (ALLORION THERAPEUTICS INC, priority 2022, published 2026)
